Results published in patent US11612592B2, “Liquid formulations containing picosulfate and magnesium citrate” (FERRING B.V., priority 2015, dated 2023).
Entries after “also recorded” stand apart in the source; their conditions may differ.

How the values were obtained:
[1] = Freeze-thaw cycle accelerated method for predicting precipitation (height of precipitate in tube); type: physicochemical; details: for Effectiveness to inhibit precipitation: 63 mmol in 150 mL (420 mM), five freeze-thaw cycles; for Effectiveness as precipitation inhibitor compared with malic acid: 31 mmol in 150 mL (210 mM)
Protocol: A picosulfate formulation containing sodium picosulfate (10 mg), magnesium oxide (3.5 g), citric acid (12 g), and KHCO3 (0.65 g) and, optionally, a precipitation inhibitor (or combination of inhibitors) to be tested, dissolved in water (150 mL) is prepared. The pH is adjusted to the range 4.7-5.1 using aq. NaOH and aq. HCl solutions. The solution is filtered through a 0.22 μm PTFE filter under vacuum.
Two portions of 10 mL of the formulation test solution are placed in tapered, graduated, centrifuge tubes (15 mL) and subjected to five freeze-thaw cycles in which the solutions are frozen at −20° C. for at least 12 h and then thawed at 20-25° C. for 8 h. At the end of each cycle, the tube is inspected for precipitation at the bottom of the tube. If precipitation is present, the amount of precipitate is quantitated by measuring the height (in mm) of the precipitate in the centrifuge tube using a ruler.
The amount of precipitate (if any) is quantitated by measuring the height (in mm) of the precipitate in the centrifuge tube using a ruler at the end of each freeze thaw cycle.
If a polymer is included in the formulation, the polymer (75-150 mg) is dissolved in water (150 mL) until a clear solution (containing the polymer at a concentration of […]) is formed. A sachet of PREPOPIK® sodium picosulfate/magnesium citrate granules (containing sodium picosulfate (10 mg), magnesium oxide (3.5 g), citric acid (12 g), KHCO3 (0.65 g), Na-saccharin and orange flavoring) is added. A carboxylic acid (31-63 mmol) is added, and the pH is adjusted to the range 4.7-5.1 using aq. NaOH and aq. HCl solutions. The solution is filtered through a 0.22 μm PTFE filter under vacuum.

[2] = Time to precipitation on storage under ambient conditions (20-25 °C); type: physicochemical; details: Table 3 data; 0.42 M
Protocol: A liquid formulation containing sodium picosulfate and magnesium citrate was prepared by dissolving a sachet of commercially available PREPOPIK® containing sodium picosulfate (10 mg), magnesium oxide (3.5 g), citric acid (12 g), KHCO3 (0.65 g), and orange or berry flavoring in water (150 mL). The solution is stored under ambient conditions and observed periodically until precipitation from the solution is noted.
A liquid formulation containing sodium picosulfate and magnesium citrate stabilized with malic acid was prepared using the ingredients listed in Table 1. The solution is stored under ambient conditions and observed periodically for precipitation from the solution. No precipitation is observed within 340 days.
As a reference, commercially available sodium picosulfate/magnesium oxide/citric acid (PICOSOLUTION™, Pharmbio Co., Ltd.) is also stored under ambient conditions and observed periodically for precipitation from the solution. No precipitation is observed within 645 days.
The remainder of the formulation test solution may be stored at ambient temperature (e.g., 20-25° C.) to determine the stability under non-accelerated conditions.
Samples of each of the solutions are also stored at ambient temperature (20-25° C.) and monitored for the appearance of precipitation. […]

Concentration of malic acid needed for prolonged stability [2] [mmol per 150 mL] | Structure (SMILES) | Effectiveness to inhibit precipitation [1] | Effectiveness as precipitation inhibitor compared with malic acid [1]
≥ 63 | O=C(O)CC(O)C(=O)O (stereo not drawn) [malic acid] | very effective; also recorded: effective to inhibit precipitation | –
– | O=C(O)CC(=O)O [malonic acid] | very effective; also recorded: effective to inhibit precipitation | more effective as a precipitation inhibitor than malic acid
– | O=C(O)C(O)C(O)C(=O)O (stereo not drawn) [tartaric acid] | very effective; also recorded: effective to inhibit precipitation | of comparable effectiveness
